Results as given in patent US12668567B2 (Zywie, LLC, priority 2023, dated 2026).
Entries after “also recorded” stand apart in the source; their conditions may differ.

What was measured:
[1] = mouse, in vivo, po, 10 mg/kg
Protocol: Both compounds were dosed at 10 mg/kg (free base equivalent) as 1 mg/mL clear solutions in 5:95 v/v dimethylsulfoxide (DMSO)/saline. Volumes administered were calculated for each animal based on their most recent weight. Animals were fasted overnight prior to drug administration and food and water were returned 4 h after dose administration. Mice (N=3 per group) were sacrificed at 0.15, 0.25, 1, 2, 4, 8, and 24 h post-dose. Blood (K2EDTA collection tubes) and brain were collected from each animal at each time point. Plasma (isolated from blood samples by centrifugation) and brain homogenates (obtained by homogenization with 50% methanol in water in a 1:2 w/v ratio) were used to prepare samples for quantitative analysis (internal standard: verapamil) by HPLC/MS-MS (C18 column, gradient elution; standard curves from 1 to 3,000 ng/mL; electrospray, positive ionization mode, multiple reaction monitoring—MRM—mode).

[2] = Metabolic stability in human liver microsomes; assay type: in vitro ADME; conditions: for Increase of elimination half-life vs. ambroxol: human liver microsomes; for In vitro elimination half-life t1/2 / Intrinsic clearance CLint-microsomes: human liver microsomes 1 mg/mL protein, 1 μM compound, 37° C., NADPH-regenerating system
Protocol: The compounds were added to preparations of human liver microsomes (200 μL per incubation at a 1 mg/mL protein concentration) such that the final compound concentration was 1 μM. The samples were incubated at 37° C. in the presence of a reduced nicotinamide adenine dinucleotide phosphate (NADPH)-regenerating system (NADP, 1 mM, pH 7.4; glucose-6-phosphate, 5 mM, pH 7.4; glucose-6-phosphate dehydrogenase, 1 unit/mL). A positive control (midazolam, 1 μM, 0.1 mg/mL protein) was incubated concurrently to ensure the microsome preparation was performing as expected. Samples were obtained at t=0, 30, 60, and 120 min and quenched by addition of acetonitrile.
Quenched samples were analyzed by liquid chromatography coupled to tandem mass spectrometry detection (LC/MS-MS). The concentration of the test compounds at each time point were converted to percent remaining relative to the concentration of the compound at time t=0 (which serves as the 100% value). All data points were included in data processing. The rate constant of elimination (kel, min^−1) of each test compound was determined from the time course of disappearance of the parent compound based on fitting the experimental data to a single exponential decay formula (At=Aoe^−kelt, where At is the % remaining at time t, Ao is 100%, […] is the elimination rate constant, and t is time). The in vitro half-life (t1/2) was determined from kel based on the formula: t1/2=ln(2)/kel. The rate constant of elimination was also used to calculate the in vitro intrinsic clearance CLint-microsomes (μL/min/mg protein).

[3] = test system: iPSC-derived human neurons; test: Lysosomal and autophagosomal gene expression by qPCR in iPSC-derived human neurons; assay type: cell-based; conditions: 3 days, 10 micromolar, FIG. 5
Protocol: To obtain the data, iPSC-derived human Neurons were treated for 3 days with solvent alone (DMSO), ZW-010 (difluoro) or ZW-011 (dimethoxy) at 10 micromolar. Cells were extracted and mRNAs were quantitated by qPCR.
In FIG. 5, Human iPSC-derived neurons (as in FIG. 3) were plated on two 6-well plates at a density of 150,000 cells/well. […] Cells were treated for 3 days and cells were TRIzol-chloroform extracted. cDNA was created using an iScript cDNA synthesis kit (Bio-Rad), and RT-PCR was run using a SsoAdvanced Universal SYBR Green Supermix kit (Bio-Rad).

N2A neuroblastoma cells = test: Lysosomal, autophagosomal and TFEB gene expression by qPCR in N2A cells; assay type: cell-based; conditions: 10 micromolar, FIG. 4
Protocol: To obtain the data, N2A neuroblastoma cells were treated for 3 days with solvent alone (DMSO), ZW-010 (difluoro) or ZW-011 (dimethoxy) at 10 micromolar. Cells were extracted and mRNAs were quantitated by qPCR.
In FIG. 4, N2a Neuroblastoma cells were obtained from the American Tissue Type Collection (ATCC). Cells were plated in a 6-well plate at a density of 100,000 cells/well. Cells were given 24 hours in MEM supplemented with 10% Fetal Bovine Serum (FBS) and then differentiated by serum starvation in MEM for 24 hours. […] Cells were left in treated media for 24 hours then RNA was TRIzol-chloroform extracted. cDNA was created using an iScript cDNA synthesis kit (Bio-Rad), and RT-PCR was run using a SsoAdvanced Universal SYBR Green Supermix kit (Bio-Rad).

[4] = test system: iPSC-derived human neurons bearing the Swedish amyloid precursor protein mutation; test: Secretion of Abeta40 and Abeta42 into media (ELISA); assay type: cell-based; conditions: 5 days; for secretion of Abeta40 into the media / secretion of Abeta42 into the media: 10 micromolar; for secretion of Abeta40 into the media: FIG. 7A; for secretion of Abeta42 into the media: FIG. 7B
From the text: Media was collected and analysed by ELISA assay.
Media was taken and analyzed by ELISA (Invitrogen) for Abeta 40 (FIG. 7A) and 42 (FIG. 7B) following manufacturer's instructions.

[5] = test system: human induced pluripotent stem cell (iPSC)-derived neurons; test: Lysosomal size (Lysotracker, confocal microscopy) in iPSC-derived neurons; assay type: cell-based; conditions: 14 days, IMARIS software, FIG. 3
Protocol: To obtain the data, human induced pluripotent stem cell (iPSC)-derived neurons were grown in culture for 14 days. Lysosomes were stained with “Lysotracker” and cells were fixed and imaged using confocal micrsosopy. Lysosomal size was measured using IMARIS software (Bitplane).
In FIG. 3 human neuronal inducible Pluripotent Stem Cells (iPSCs) were obtained from the New York Stem Cell Foundation. Cultured cells were differentiated and maintained in proprietary media from Stem Cell Technology. […] Cells were treated for 14 days. Lysosomes were stained with “Lysotracker Green” (Invitrogen) following manufacturer's directions. Cells were fixed and 3D image stacks were acquired using a Leica SP8 laser scanning confocal microscope. Lysosomal size was quantitated using IMARIS 7.7 software (Bitplane).

TFEB = TFEB transfer to the nucleus (immunostaining, nuclear puncta); assay type: cell-based; conditions: human iPSC-derived neurons, 14 days; FIG. 6
Protocol: To obtain the data, human iPSC-derived neurons were treated with difluor-substituted-ambroxol for 14 days. Cells were fixed and endogenous TFEB was immunostained and nuclei were identified by DAPI staining. Cells were imaged on a Leica SP8 Confocal Microscope. TFEB signal appeared as puncta throughout the cytoplasm and nucleus (FIG. 6B). TFEB puncta within the nucleus were quantitated using IMARIS software (Bitplane).
Human iPSC-derived neurons were treated with difluoro-substituted-ambroxol for 14 days. Cells were fixed and endogenous TFEB was immunostained. Nuclei were identified by DAPI staining. Cells were imaged as 3D stacks on a Leica SP8 Confocal Microscope. TFEB signal appeared as puncta throughout the cytoplasm and nucleus (FIG. 6A). TFEB puncta within the nucleus were quantitated using IMARIS 7.7 software (Bitplane) (FIG. 6B).

mice = test: Novel place recognition (cognitive acuity test at 7 months); assay type: in vivo, mouse; conditions: 150 mg/kg/day and 50 mg/kg/day vs. control, tested at 7 months; FIG. 9
Protocol: A Discrimination Index (DI)=(tnovel-tfamiliar)/(tnovel+tfamiliar) was used to assess the time spent exploring near the object in a novel place (“tnovel”) vs. the total exploration time overall. Discrimination Index scores greater than zero are considered to indicate good place recognition memory.
Three groups of mice, with at least 13 mice in each group, are given a cognitive acuity test at 7 months. The three groups of mice are: “High Dose” Group (150 mg/kg/day of a compound of the present invention), “Low Dose” (50 mg/kg/day of a compound of the present invention) Group, and a Control Group (not administered a compound of the present invention).

mouse B6D2F1 model = test: Lifespan study with chow supplement; assay type: in vivo; conditions: 50 mg/kg daily as chow supplement
Protocol: Weaned male BDF1 mice raised from pups, housed 1-4 animals per cage and fed Teklad 7013 NIH-31 rodent chow and water ad libitum, at 2 months of age, are divided into two roughly equal groups of 22-25 animals. One group continues to be fed the Teklad chow as before (control); the other group is switched to Teklad chow formulated with any one of compounds 1-6 at 300 mg per kg of chow. This formulation was designed, based on the average ad libitum chow consumption of an adult male BDF1 mouse, to deliver 50 mg/kg/day (based on body mass) to each mouse in the treated group. Mice are maintained on this diet until they die naturally or until they reach 16 months of age, at which time the experiment ends. During the course of the experiment, all mice are periodically removed from their cages and handled in the course of subjecting them to various sensorimotor, cognitive, and/or behavioral tests.

| Compound | AUClast Brain/Plasma [1] | AUClast, brain [1] | AUClast, plasma [1] | molar exposure AUClast [1] | Increase of elimination half-life vs. ambroxol [2] | In vitro elimination half-life t1/2 [2] | Intrinsic clearance CLint-microsomes [2] | lysosomal and autophagosomal gene expression (LAMP1, Cathepsin D, Cathepsin B, GBA1, LC3, TFEB mRNA) [3] | lysosomal, autophagosomal and TFEB gene expression (LAMP1, Cathepsin B, GBA1, LC3, TFEB mRNA) (N2A neuroblastoma cells) | secretion of Abeta40 into the media [4] | secretion of Abeta42 into the media [4] | lysosomal size [5] | TFEB transfer to the nucleus (TFEB) | cognitive acuity (novel place recognition) (mice) | secretion of beta amyloid species (Abeta 40 and 42) ([4]; FIG. 7A-B) | lifespan (mouse B6D2F1 model; starting at 2 months of age, FIG. 8) | healthspan (mouse B6D2F1 model; surviving animals when sacrificed) |
| --- | --- | --- | --- | --- | --- | --- | --- | --- | --- | --- | --- | --- | --- | --- | --- | --- | --- |
| Nc1c(F)cc(F)cc1CN[C@H]1CC[C@H](O)CC1 [ZW-010, trans-{4-[(2-amino-3.5-difluorophenyl)methyl]amino}cyclohexanol] | 3.6 | 10774 ng·h/g | 2991 ng·h/mL | 42.0 µM·h | increased by more than two-fold | >2 h | <5.775 μL/min/mg protein | increased transcription of lysosome-associated LAMP1, Cathepsin D, Cathepsin B, GBA1, and autophagy-associated LC3 and TFEB to a greater extent than ambroxol; also recorded: drive lysosomal and autophagosomal gene expression to a greater degree in iPSC-derived human neurons compared with ambroxol | increased transcription of lysosome-associated LAMP1, Cathepsin B, GBA1, and autophagy-associated LC3 and TFEB to a greater extent than ambroxol; also recorded: drive lysosomal and autophagosomal and TFEB gene expression | decreased secretion | decreased secretion | increase lysosomal size | induces TFEB transfer to the nucleus | – | – | – | – |
| COc1cc(CN[C@H]2CC[C@H](O)CC2)c(N)c(OC)c1 [ZW-011, trans-4-{[(2-amino-3.5-dimethoxyphenyl)methyl]amino}cyclohexanol] | – | – | – | – | increased by more than two-fold | >2 h | <5.775 μL/min/mg protein | increased transcription of lysosome-associated LAMP1, Cathepsin D, Cathepsin B, GBA1, and autophagy-associated LC3 and TFEB to a greater extent than ambroxol; also recorded: drive lysosomal and autophagosomal gene expression to a greater degree in iPSC-derived human neurons compared with ambroxol | increased transcription of lysosome-associated LAMP1, Cathepsin B, GBA1, and autophagy-associated LC3 and TFEB to a greater extent than ambroxol; also recorded: drive lysosomal and autophagosomal and TFEB gene expression | decreased secretion | decreased secretion | increase lysosomal size | – | – | – | – | – |
| Nc1c(Br)cc(Br)cc1CN[C@H]1CC[C@H](O)CC1 [ambroxol, trans-4-((2-amino-3,5-dibromobenzyl)amino) cyclohexanol] | – | – | – | – | – | – | – | – | – | – | – | – | – | dose-related improvement in cognitive acuity | effective in reducing secretion of beta amyloid species | able to increase lifespan | healthspan was extended in parallel with lifespan |
